Measured values published in the NIST ThermoML archive (doi:10.1021/acs.jced.6b00542).

Experiment: xn = mol fraction of the nth substance listed
Conditions: for speed of sound: 100 kPa, Frequency=3 MHz, Sing-around technique in a fixed-path interferometer; for speed of sound / viscosity / mass density: Liquid; for viscosity / mass density: 102 kPa; for viscosity: Concentric cylinders viscometry; for mass density: Vibrating tube method; for surface tension liquid-gas: 294.5 K, Pendant drop shape

CCCCc1ccccc1 [butylbenzene] + CCCCCCCCCCCCCCCC
Conditions	mass density [kg/m3]	speed of sound [m/s]	viscosity [mPa·s]
293.15 K, x1 = 0.1586	780.89	1353.2	2.92
293.15 K, x1 = 0.2971	788.51	1350.1	2.5
293.15 K, x1 = 0.4067	795.49	1347.8	2.21
293.15 K, x1 = 0.5293	804.56	1346	1.91
293.15 K, x1 = 0.6278	813.07	1345	1.69
293.15 K, x1 = 0.7158	821.75	1345.1	1.52
293.15 K, x1 = 0.7981	831.1	1346.3	1.36
293.15 K, x1 = 0.8709	840.48	1347.8	1.23
293.15 K, x1 = 0.938	850.32	1350.4	1.12
293.15 K, x1 = 1	860.51	1353.7	1.05
303.15 K, x1 = 0.1586	773.89	1316.1	2.35
303.15 K, x1 = 0.2971	781.43	1313	2.05
303.15 K, x1 = 0.4067	788.33	1310.7	1.83
303.15 K, x1 = 0.5293	797.29	1308.8	1.6
303.15 K, x1 = 0.6278	805.7	1307.7	1.43
303.15 K, x1 = 0.7158	814.27	1307.6	1.29
303.15 K, x1 = 0.7981	823.49	1308.5	1.17
303.15 K, x1 = 0.8709	832.73	1309.7	1.06
303.15 K, x1 = 0.938	842.44	1312	0.976
303.15 K, x1 = 1	852.49	1314.9	0.91
313.15 K, x1 = 0.1586	766.88	1279.5	1.94
313.15 K, x1 = 0.2971	774.34	1276.4	1.71
313.15 K, x1 = 0.4067	781.16	1274.1	1.54
313.15 K, x1 = 0.5293	790	1272.1	1.36
313.15 K, x1 = 0.6278	798.3	1270.8	1.23
313.15 K, x1 = 0.7158	806.75	1270.5	1.11
313.15 K, x1 = 0.7981	815.84	1271.1	1.01
313.15 K, x1 = 0.8709	824.96	1272.1	0.932
313.15 K, x1 = 0.938	834.53	1274	0.859
313.15 K, x1 = 1	844.43	1276.6	0.801
323.15 K, x1 = 0.1586	759.88	1243.6	1.62
323.15 K, x1 = 0.2971	767.24	1240.4	1.44
323.15 K, x1 = 0.4067	773.97	1238	1.31
323.15 K, x1 = 0.5293	782.69	1235.9	1.17
323.15 K, x1 = 0.6278	790.88	1234.4	1.06
323.15 K, x1 = 0.7158	799.21	1233.9	0.972
323.15 K, x1 = 0.7981	808.17	1234.3	0.891
323.15 K, x1 = 0.8709	817.16	1235	0.822
323.15 K, x1 = 0.938	826.58	1236.6	0.761
323.15 K, x1 = 1	836.34	1238.7	0.713
333.15 K, x1 = 0.1586	752.86	1208.2	1.37
333.15 K, x1 = 0.2971	760.13	1204.9	1.24
333.15 K, x1 = 0.4067	766.76	1202.5	1.13
333.15 K, x1 = 0.5293	775.36	1200.2	1.02
333.15 K, x1 = 0.6278	783.43	1198.6	0.929
333.15 K, x1 = 0.7158	791.64	1197.8	0.856
333.15 K, x1 = 0.7981	800.47	1197.9	0.787
333.15 K, x1 = 0.8709	809.32	1198.3	0.731
333.15 K, x1 = 0.938	818.61	1199.6	0.68
333.15 K, x1 = 1	828.21	1201.4	0.636
343.15 K, x1 = 0.1586	745.8	–	1.18
343.15 K, x1 = 0.2971	752.9	–	1.07
343.15 K, x1 = 0.4067	759.5	–	0.986
343.15 K, x1 = 0.5293	767.9	–	0.893
343.15 K, x1 = 0.6278	775.9	–	0.821
343.15 K, x1 = 0.7158	783.9	–	0.757
343.15 K, x1 = 0.7981	792.7	–	0.702
343.15 K, x1 = 0.8709	801.4	–	0.653
343.15 K, x1 = 0.938	810.6	–	0.61
343.15 K, x1 = 1	819.9	–	0.571
353.15 K, x1 = 0.1586	738.8	–	1.03
353.15 K, x1 = 0.2971	745.8	–	0.939
353.15 K, x1 = 0.4067	752.3	–	0.868
353.15 K, x1 = 0.5293	760.5	–	0.792
353.15 K, x1 = 0.6278	768.4	–	0.731
353.15 K, x1 = 0.7158	776.2	–	0.677
353.15 K, x1 = 0.7981	784.9	–	0.63
353.15 K, x1 = 0.8709	793.5	–	0.588
353.15 K, x1 = 0.938	802.5	–	0.55
353.15 K, x1 = 1	811.7	–	0.516
363.15 K, x1 = 0.1586	731.6	–	0.91
363.15 K, x1 = 0.2971	738.6	–	0.833
363.15 K, x1 = 0.4067	744.9	–	0.773
363.15 K, x1 = 0.5293	753.1	–	0.708
363.15 K, x1 = 0.6278	760.8	–	0.656
363.15 K, x1 = 0.7158	768.5	–	0.61
363.15 K, x1 = 0.7981	777.1	–	0.569
363.15 K, x1 = 0.8709	785.4	–	0.532
363.15 K, x1 = 0.938	794.3	–	0.5
363.15 K, x1 = 1	803.4	–	0.469
373.15 K, x1 = 0.1586	724.5	–	0.811
373.15 K, x1 = 0.2971	731.3	–	0.746
373.15 K, x1 = 0.4067	737.5	–	0.695
373.15 K, x1 = 0.5293	745.5	–	0.639
373.15 K, x1 = 0.6278	753.1	–	0.594
373.15 K, x1 = 0.7158	760.8	–	0.553
373.15 K, x1 = 0.7981	769.1	–	0.517
373.15 K, x1 = 0.8709	777.5	–	0.484
373.15 K, x1 = 0.938	786.1	–	0.456
373.15 K, x1 = 1	795	–	0.43

Conditions	surface tension liquid-gas [mN/m]
x1 = 0.1586	27.5
x1 = 0.2971	27.3
x1 = 0.4067	27.6
x1 = 0.5293	27.8
x1 = 0.6278	27.9
x1 = 0.7158	28
x1 = 0.7981	28.2
x1 = 0.8709	28.4
x1 = 0.938	28.7
